Assay results from patent US20240033277A1, “METHODS FOR TREATING AUTOIMMUNE DISEASES” (NEW YORK SOCIETY FOR THE RELIEF OF THE RUPTURED AND …, priority 2020, published 2024).
Entries after “also recorded” stand apart in the source; their conditions may differ.

What was measured:
[1] = system: TLR9-activated pDCs; test: IFNA gene expression (Q-PCR) in pDCs activated with TLR9 agonist CpG-C274; assay type: cell-based, human; conditions: for IFNA expression in TLR9-activated pDCs under ER stress plus IRE1α inhibitor: TM or TG with MKC8866 at 1 μM or 4μ8c at 10 μM for 3 h, FIGS. 1F, 1G, 6C, 6D; for IFNA (IFN-I) expression in TLR9-activated pDCs: UK5099 at 10, 20, and 40 μM or CB839 at 0.5 μM for 1 h, FIGS. 11B-11C
[2] = system: TLR9-activated pDCs; test: IFN-I gene and interferon-stimulated gene (ISG) expression in TLR9-activated pDCs (RNA-seq, Q-PCR); assay type: cell-based, human; conditions: CPI-613 at 100 & 200 μM for 1 h, then TLR9 agonist for 5 h; FIGS. 8A-8E
[3] = system: pDCs of SSc patients; test: Secreted CXCL4 (ELISA) from pDCs of patients with SSc; assay type: cell-based, human; conditions: CPI-613 at 200 μM for 13 h, FIG. 4H
[4] = system: IRE1α-XBP1 signaling in pDCs; test: XBP1 splicing (Q-PCR) in pDCs; assay type: cell-based, human
[5] = system: pDCs; test: Intracellular ATP in pDCs (ATP determination kit); assay type: cell-based, human; conditions: then TLR9 agonist
Procedure: (§1) Supernatants were removed, and cells were deproteinated in 0.5 ml of 0.5M MPA on ice for 5 min, followed by centrifugation at 10000×g for 5 min at 4° C. The deproteinated samples were neutralized with 25 μl of potassium carbonate, and then centrifugation at 10000×g for 5 min at 4° C. The supernatant was removed and deproteinated samples were used for pyruvate assay. For ATP determination, ATP determination kit (Sigma: A22066) was used in pDCs extracts as per the manufacture protocol.

[6] = system: TLR9-activated pDCs; test: Secreted IFN-α (ELISA) from pDCs activated with TLR9 agonist; assay type: cell-based, human
[7] = system: pDCs of SSc patients; test: IFN-inducible gene expression in pDCs of patients with SSc; assay type: cell-based, human; conditions: CPI-613 at 200 μM for 13 h; FIG. 4G
[8] = system: pDCs; test: Cell viability of pDCs by flow cytometry (DAPI); conditions: CPI-613 at 100 & 200 μM for 1 h, then TLR9 agonist for 5 h; FIG. 8F
Procedure: (§2) After 6-8 h of cell culture, pDCs were washed in PBS and then resuspending in FACS buffer and stained with DAPI. Cells were acquired by a fluorescence activated cell sorter (FACS) and analysis was performed using FlowJo analysis software. The gating strategy for viable cells involved progressively measuring total cells without uptake of DAPI.
(§3) Cell viability using Flow cytometry. After 6 h of cell culture, pDCs were washed in PBS and then resuspended in FACS buffer and stained with DAPI. Cells were acquired by a fluorescence activated cell sorter (FACS) and analysis was performed using FlowJo analysis software. The gating strategy for viable cells involved progressively measuring total cells without uptake of DAPI.

[9] = system: pDCs; test: Serine biosynthesis gene expression (PHGDH, PSAT1, PSPH; Q-PCR) in pDCs; assay type: cell-based, human
[10] = system: pDCs; test: Intracellular pyruvate in pDCs (pyruvate detection kit); assay type: cell-based, human; conditions: then TLR9 agonist for 2.5 h, FIGS. 2K, 2L
Procedure: as §1, with “Intracellular pyruvate were determined in pDCs by pyruvate detection kit (Cayman chemicals: 700470) as per the manufacture protocol. pDC cultured in RPMI medium were washed in 1 ml of PBS and centrifuged at 10000×g for 5 min at 4° C. Supernatants” for “Supernatants”

[11] = system: pDCs; test: IFN-α expression in pDCs cultured with ER stress inducers alone; assay type: cell-based, human; conditions: TM at 3 μg/ml or TG at 0.5 μM, no TLR agonist; FIGS. 1A, 1B
[12] = system: pDCs
Procedure: as §2, §3

[13] = system: TLR9-activated pDCs; test: IL-6 gene expression (Q-PCR) in TLR9-activated pDCs; assay type: cell-based, human; conditions: TM or TG for 3 h, then TLR9 agonist; quantified at 5 h; FIG. 5F
[14] = system: pDCs; test: UPR and ER stress gene expression in pDCs (RNA-seq, Q-PCR); assay type: cell-based, human
[15] = then CpG-C274 0.075 μM, 5 h, normalized to TLR9 agonist

`Cc1cc(=O)oc2c(C=O)c(O)ccc12` [4μ8c] was tested, and the “IFNA expression in TLR9-activated pDCs under ER stress plus IRE1α inhibitor” value ([1]; then TLR9 agonist, 5 h) was “prevented ER stress-driven inhibition of IFN-α”.

With `O=C(Cc1cccc(OC(F)(F)F)c1)Nc1ccc(CCCCc2nnc(NC(=O)Cc3ccccn3)s2)nn1` [CB839] the “IFNA (IFN-I) expression in TLR9-activated pDCs” value [1, 15] was “Inhibit”.

With `O=C(O)CCCCC(CCSCc1ccccc1)SCc1ccccc1` (stereo not drawn) [CPI-613, 6,8-bis-benzylthio-octanoic acid] the “expression of ISGs such as GBP1, IRF7, ISG54, MxB, CXCL10” value [2] was “inhibited”, the “secretion of CXCL4” value [3] was “no effect” and the “effect on XBP1 splicing” value ([4]; CPI-613 at 100 & 200 μM for 1 h, then TLR9 agonist for 5 h, FIG. 8G) was “no effect”. For the same molecule, the “intracellular ATP levels in TLR9-activated pDCs” value ([5]; CPI-613 at 100 μM & 200 μM for 1 h, 4 h, normalized to medium, FIG. 3L) was “reduced”, the “secretion of IFN-α by TLR9-activated pDCs” value ([6]; CPI-613 at 100 μM & 200 μM for 1 h, then TLR9 agonist, 13 h, FIG. 3K) was “inhibited” and the “induction of IFN-α by TLR9-stimulated pDCs in the presence of CXCL4” value ([6]; CPI-613 at 200 μM for 1 h, then TLR9 agonist with CXCL4, 13 h ELISA, FIG. 4F) was “abrogated”. For the same molecule, the “expression of IFN-inducible genes (GBP1, IRF7, ISG54, MxB, OAS2) by pDCs of SSc patients” value [7] was “drastically reduced”, the “effect on cell viability” value [8] was “no effect” and the “IFNA expression in TLR9-activated pDCs” value ([1]; CPI-613 at 100 μM & 200 μM for 1 h, then TLR9 agonist, 5 h, FIG. 3J) was “inhibited; also recorded: reduces”. For the same molecule, the “effect on expression of PHGDH” value ([9]; CPI-613 at 100 & 200 μM for 1 h, then TLR9 agonist for 5 h, FIG. 8H) was “no effect”.

With `Cc1ccc(OCCN(C)C(=O)Cn2cc(NC(=O)CCOc3ccccc3)cn2)cc1` [IXA4] the XBP1 splicing ([4]; IXA4 at 10 μM & 30 μM for 6 h, FIG. 1H) was “enhanced”, the “IFNA expression in TLR9-activated pDCs” value ([1]; IXA4 at 10 μM & 30 μM for 1 h, then TLR9 agonist, 5 h, FIG. 1I) was “abrogated” and the PHGDH gene expression ([9]; IXA4 at 30 μM for 6 h, normalized to medium, FIG. 2F) was “conversely induced”.

For `N[C@@H](CO)C(=O)O` [L-serine], the “IFN-α secretion by TLR9-activated pDCs” value ([6]; L-serine 1 mg/ml for 1 h, then TLR9 agonist, 13 h, FIG. 2J) was “unaltered”.

With `COc1cc2c(C)c(CC(=O)N3CCOCC3)c(=O)oc2c(C=O)c1O` [MKC8866] the “IFNA expression in TLR9-activated pDCs under ER stress plus IRE1α inhibitor” value ([1]; then TLR9 agonist, 5 h) was “prevented ER stress-driven inhibition of IFN-α”.

With `Cc1cc(C)nc(NC(=S)N2CCN(Cc3ccc(C(F)(F)F)cc3)CC2)c1` [NCT-503] the “intracellular pyruvate levels in ER stressed-pDCs plus PHGDH inhibitor” value ([10]; TM or TG with NCT-503 at 2 μM for 3 h) was “restored”, the “intracellular ATP levels under ER stress plus PHGDH inhibitor” value ([5]; tunicamycin with NCT-503 at 2 μM for 3 h, 2.5 h, FIG. 3I) was “restored” and the “IFNA expression by TLR9-activated pDCs facing ER stress plus PHGDH inhibitor” value ([1]; TM or TG with NCT-503 at 2 μM for 3 h, then TLR9 agonist, 5 h, FIGS. 2H, 2I) was “restored”.

With `N#C/C(=C\c1cn(-c2ccccc2)c2ccccc12)C(=O)O` [UK5099] the “IFNA (IFN-I) expression in TLR9-activated pDCs” value [1, 15] was “Inhibit”.

`CC(=O)C(=O)[O-].[Na+]` [pyruvate, sodium pyruvate] was tested, and the “intracellular ATP levels under ER stress with metabolite supplementation” value ([5]; TM or TG with pyruvate 10 mM or α-KG 10 mM for 3 h, 2.5 h, FIGS. 3E-3H) was “restored” and the “IFNA expression by TLR9-activated pDCs under ER stress with metabolite supplementation” value ([1]; TM or TG with sodium pyruvate 10 mM or α-KG 10 mM for 3 h, then TLR9 agonist, 5 h, FIGS. 3A-3D) was “sufficient to restore”.

For `C/C=C(/C)C(=O)O[C@H]1C(C)=C2[C@H]([C@@H]1OC(=O)CCCCCCC)[C@@](C)(OC(C)=O)C[C@H](OC(=O)CCC)[C@@]1(O)[C@H]2OC(=O)[C@@]1(C)O` [thapsigargin, Thapsigargin], the “intracellular pyruvate levels in ER stressed-pDCs” value ([10]; TM or TG for 3 h) was “significantly reduced”, the “capacity to express IFN-α with ER stress inducer alone” value [11] was “not impacted” and the effect on viability [12] was “negligible effects”. The “intracellular ATP levels under ER stress” value ([5]; TM or TG for 3 h, 2.5 h, normalized to medium, FIGS. 3E-3H) was “reduced”, the “effect on IL-6 expression” value [13] was “negligible effects” and the “induction of the unfolded protein response (UPR), RNA-seq” value ([14]; pDCs from HDs cultured 8 h, TM at 3 μg/ml or TG at 0.5 μM vs media alone, FIGS. 5A-5D) was “strong induction”. For the same molecule, the “expression levels of IFNA in response to TLR9” value ([1]; TM 3 μg/ml or TG 0.5 μM for 3 h, then CpG-C274 0.075 μM, quantified at 5 h, normalized to TLR9 agonist, FIG. 1A) was “drastically inhibited”, the PHGDH gene expression ([9]; TM or TG for 3 h, followed by TLR9 agonist for 5 h, FIG. 2D) was “markedly induced” and the “serine biosynthesis gene expression (PHGDH, PSAT1, PSPH), irrespective of TLR9 signaling” value ([9]; TM or TG for 3 h, followed by TLR9 agonist for 5 h, FIGS. 2D, 7C, 7D) was “induction”.

B1: CXCL4: chemokine CXCL4 (Sigma: SRP3142) added to pDC culture at 3 μg/ml (protein, UniProt P02776 32-101, looked up)
Platelet factor 4: EAEEDGDLQCLCVKTTSQVRPRHITSLEVIKAGPHCPTAQLIATLKNGRKICLDLQAPLYKKIIKKLLES
For B1, the “IFN-α secretion by TLR9-activated pDCs undergoing ER stress” value ([6]; tunicamycin 3 h, then TLR9 agonist with CXCL4 3 μg/ml, 13 h, FIG. 4C) was “restore”, the “expression of UPR genes (XBP1, spliced XBP1, HSPA5, DNAJB9) facing ER stress” value ([14]; tunicamycin 3 h, then TLR9 agonist with CXCL4 3 μg/ml, 5 h, FIG. 4D) was “significant decrease” and the “IFN-α expression by TLR9-activated pDCs undergoing ER stress” value ([1]; tunicamycin 3 h, then TLR9 agonist with CXCL4 3 μg/ml, 5 h, FIG. 10A) was “restore”. The “PHGDH upregulation under ER stress” value ([9]; tunicamycin 3 h, then TLR9 agonist with CXCL4 3 μg/ml, 5 h, FIG. 4E) was “dampened”.
